Source: US20220298115A1, “SMALL MOLECULE INHIBITORS OF ACETYL COENZYME A SYNTHETASE SHORT CHAIN 2 (ACSS2)” (Curadev Pharma Pvt. Ltd., priority 2019, published 2022)

Tests used:
[1] = system: [14C] acetate incorporation in macromolecules, BT474 cells; experiment: Cell based [14C] acetate incorporation assay; conditions: Homo sapiens, BT-474, 3 h at 37° C., read-out: Cellular Activity (IC50 range)
Outline: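 BT474 cells (4×10^4/well, plated overnight) were preincubated with compound for 10 min at 37°C in HBSS. They were then given 0.1 μCi [14C]acetate plus 10 μM unlabelled acetate (both in the added acetate solution) for 3 h at 37°C, 5% CO2. Label incorporated into macromolecules was harvested onto PEI-treated filters and counted by scintillation.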

human ACSS2 = target: T1, human ACSS2 (Homo sapiens, UniProt Q9NR19); experiment: ACSS2 enzyme assay (acetyl-CoA formation, LC-MS/MS); type: biochemical; conditions: cytosolic fraction of BT474 cells as ACSS2 source; 100 μM acetate, CoA and ATP; 2 h at 25° C.; read-out: Enzyme Activity (IC50 range)
T1 construct: The cytosolic fraction of BT474 cells was used as a source of the ACSS2 enzyme; endogenous in cells; host or cells: BT474 cells (cytosolic fraction)
T1 sequence (Q9NR19 whole entry): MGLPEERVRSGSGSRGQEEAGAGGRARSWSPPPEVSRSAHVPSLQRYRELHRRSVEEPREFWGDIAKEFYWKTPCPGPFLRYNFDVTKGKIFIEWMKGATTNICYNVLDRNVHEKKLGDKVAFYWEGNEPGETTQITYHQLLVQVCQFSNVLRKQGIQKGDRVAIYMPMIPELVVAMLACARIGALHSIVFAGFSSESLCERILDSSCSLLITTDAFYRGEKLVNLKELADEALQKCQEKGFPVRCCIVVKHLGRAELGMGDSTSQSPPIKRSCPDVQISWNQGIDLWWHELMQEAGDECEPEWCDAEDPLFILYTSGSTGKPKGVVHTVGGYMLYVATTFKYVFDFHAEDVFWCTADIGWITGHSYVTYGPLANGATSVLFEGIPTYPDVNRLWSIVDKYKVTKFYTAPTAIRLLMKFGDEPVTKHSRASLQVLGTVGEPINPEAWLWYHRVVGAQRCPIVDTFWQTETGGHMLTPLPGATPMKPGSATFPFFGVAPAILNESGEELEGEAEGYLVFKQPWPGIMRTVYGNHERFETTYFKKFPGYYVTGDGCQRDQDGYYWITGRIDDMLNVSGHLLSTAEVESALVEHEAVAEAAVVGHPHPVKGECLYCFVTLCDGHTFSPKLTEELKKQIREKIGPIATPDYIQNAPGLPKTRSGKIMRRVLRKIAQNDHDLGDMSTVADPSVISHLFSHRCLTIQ
Outline: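 Enzyme source was BT474 cytosolic fraction (100 ng), preincubated 5 min with compound in 25 mM Tris-HCl pH7.4, 1 mM MgCl2, 1 mM DTT, 0.05% Tween20, 1% DMSO. Reaction started with 100 μM each of acetate, CoA and ATP, 2 h at 25 °C, stopped with TCA; acetyl-CoA quantified by LC-MS/MS.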

Row | SMILES | IC50 [1] [nM] | IC50 (human ACSS2) [nM]
1 | CC[C@@H](O)CNC(=O)Nc1ccc2nc(-c3ccccc3)c(C)c(C(=O)Nc3ccn(C)n3)c2c1 [Example 115, (R)-6-(3-(2-Hydroxybutyl)ureido)-3-methyl-N-(1-methyl-1H-pyrazol-3-yl)-2-phenylquinoline-4-carboxamide] | ≤ 1000 | < 100
2 | COCCNC(=O)Nc1ccc2nc(C)c(-c3ccccc3F)cc2c1 [Example 116, 1-(3-(2-fluorophenyl)-2-methylquinolin-6-yl)-3-(2-methoxyethyl) urea] | < 100 | ≤ 1000
3 | CC[C@H](CNC(=O)Nc1ccc2nc(-c3ccccc3)c(-c3ccccc3F)cc2c1)OP(=O)(O)O [Example 117, (R)-1-(3-(3-(2-fluorophenyl)-2-phenylquinolin-6-yl)ureido)butan-2-yl dihydrogen phosphate] | < 100 | < 100
4 | CCCCCC(=O)Nc1ccc2nc(-c3ccccc3)c(-c3ccccc3)cc2c1 [Example 118, N-(2,3-diphenyl-quinolin-6-yl) hexanamide] | ≤ 1000 | ≤ 1000
5 | CCCCCC(=O)Nc1ccc2nc(-c3ccccc3OC)c(-c3ccccc3OC)cc2c1 [Example 119, N-(2,3-bis(2-methoxy-phenyl)quinolin-6-yl) hexanamide] | < 100 | < 100
6 | CCC(=O)CCC(=O)Nc1ccc2nc(-c3ccccc3OC)c(-c3ccccc3)cc2c1 [Example 120, N-(2-(2-methoxy-phenyl)-3-phenyl-quinolin-6-yl)-4-oxohexan-amide] | < 100 | < 100
7 | CCCCCC(=O)Nc1ccc2nc(-c3ccccc3F)c(-c3ccccc3F)cc2c1 [Example 121, N-(2,3-bis(2-fluorophenyl)quinolin-6-yl) hexanamide] | ≤ 1000 | < 100
8 | CCCCC(F)(F)C(=O)Nc1ccc2nc(-c3ccccc3)c(-c3ccccc3)cc2c1 [Example 122, N-(2,3-diphenyl-quinolin-6-yl)-2,2-difluoro-hexanamide] | > 10000 | ≤ 10000
9 | CCC(=O)CCC(=O)Nc1ccc2nc(-c3ccccc3F)c(-c3ccccc3)cc2c1 [Example 123, N-(2-(2-fluorophenyl)-3-phenyl-quinolin-6-yl)-4-oxohexan-amide] | < 100 | < 100
10 | CCC(=O)CCC(=O)Nc1ccc2nc(-c3ccccc3F)c(-c3ccccc3F)cc2c1 [Example 124, N-(2,3-Bis(2-fluorophenyl)quinolin-6-yl)-4-oxohexanamide] | < 100 | < 100
11 | CCC(=O)CCC(=O)Nc1ccc2nc(-c3ccccc3)c(-c3ccccc3)cc2c1 [Example 125, N-(2,3-diphenyl-quinolin-6-yl)-4-oxohexan-amide] | < 100 | < 100
12 | CCC(=O)CCC(=O)Nc1ccc2nc(-c3ccccc3OC)c(-c3ccccc3F)cc2c1 [Example 126, N-(3-(2-fluoro-phenyl)-2-(2-methoxy-phenyl)quinolin-6-yl)-4-oxohexan-amide] | < 100 | < 100
13 | CCC(O)CCC(=O)Nc1ccc2nc(-c3ccccc3)c(-c3ccccc3)cc2c1 (centres unmarked) [Example 127, N-(2,3-diphenyl-quinolin-6-yl)-4-hydroxy-hexanamide] | < 100 | < 100
14 | CCC(O)CCC(=O)Nc1ccc2nc(-c3ccccc3F)c(-c3ccccc3F)cc2c1 (centres unmarked) [Example 128, N-(2,3-Bis(2-fluorophenyl)quinolin-6-yl)-4-hydroxyhexanamide] | < 100 | < 100
15 | CCC(O)CCC(=O)Nc1ccc2nc(C)c(-c3ccccc3F)cc2c1 (centres unmarked) [Example 129, N-(3-(2-fluorophenyl)-2-methyl-quinolin-6-yl)-4-hydroxy-hexanamide] | < 100 | < 100
16 | CCC(O)CCC(=O)Nc1ccc2nc(C)c(-c3ccccc3)cc2c1 (centres unmarked) [Example 130, 4-hydroxy-N-(2-methyl-3-phenyl-quinolin-6-yl)hexan-amide] | ≤ 1000 | < 100
17 | O=C(Nc1ccc2nc(-c3ccccc3)c(-c3ccccc3)cc2c1)NC1CCCCC1 [Example 131, 1-cyclohexyl-3-(2,3-diphenylquinolin-6-yl)urea] | ≤ 1000 | ≤ 1000
18 | CN1CCN(C(=O)Nc2ccc3nc(-c4ccccc4)c(-c4ccccc4)cc3c2)CC1 [Example 132, N-(2,3-diphenylquinolin-6-yl)-4-methylpiperazine-1-carboxamide] | > 10000 | ≤ 10000
19 | CC(=O)N1CCN(C(=O)Nc2ccc3nc(-c4ccccc4)c(-c4ccccc4)cc3c2)CC1 [Example 133, 4-acetyl-N-(2,3-diphenylquinolin-6-yl)piperazine-1-carboxamide] | > 10000 | ≤ 10000

Results, then the compound that gave them:

Row | IC50 [1] [nM] | IC50 (human ACSS2) [nM] | SMILES
20 | ≤ 1000 | ≤ 1000 | C=CCNC(=O)Nc1ccc2nc(-c3ccccc3)c(-c3ccccc3)cc2c1 [Example 134, 1-allyl-3-(2,3-diphenylquinolin-6-yl)urea]
21 | ≤ 1000 | ≤ 1000 | C#CCNC(=O)Nc1ccc2nc(-c3ccccc3)c(-c3ccccc3)cc2c1 [Example 135, 1-(2,3-diphenylquinolin-6-yl)-3-(prop-2-yn-1-yl)urea]
22 | ≤ 1000 | ≤ 1000 | O=C(Nc1ccc2nc(-c3ccccc3)c(-c3ccccc3)cc2c1)NC1CCCC1O (centres unmarked) [Example 136, 1-(2,3-diphenylquinolin-6-yl)-3-(2-hydroxycyclo-pentyl)urea]
23 | ≤ 1000 | ≤ 1000 | O=C(Nc1ccc2nc(-c3ccccc3)c(-c3ccccc3)cc2c1)NC1CCOCC1 [Example 137, 1-(2,3-diphenylquinolin-6-yl)-3-(tetrahydro-2H-pyran-4-yl)urea]
24 | < 100 | < 100 | COC1CCN(C(=O)Nc2ccc3nc(-c4ccccc4)c(-c4ccccc4)cc3c2)C1 (centres unmarked) [Example 138, N-(2,3-diphenylquinolin-6-yl)-3-methoxypyrrol-idine-1-carboxamide]
25 | > 10000 | > 10000 | O=C(Nc1ccc2nc(-c3ccccc3)c(-c3ccccc3)cc2c1)Nc1ccccn1 [Example 139, 1-(2,3-diphenylquinolin-6-yl)-3-(pyridin-2-yl)urea]
26 | > 10000 | > 10000 | O=C(Nc1ccccc1)Nc1ccc2nc(-c3ccccc3)c(-c3ccccc3)cc2c1 [Example 140, 1-(2,3-diphenylquinolin-6-yl)-3-phenylurea]
27 | > 10000 | ≤ 10000 | CN1CCC(NC(=O)Nc2ccc3nc(-c4ccccc4)c(-c4ccccc4)cc3c2)C1 (centres unmarked) [Example 141, 1-(2,3-diphenylquinolin-6-yl)-3-(1-methylpyrrolidin-3-yl)urea]
28 | > 10000 | > 10000 | O=C(Nc1ccncc1)Nc1ccc2nc(-c3ccccc3)c(-c3ccccc3)cc2c1 [Example 142, 1-(2,3-diphenylquinolin-6-yl)-3-(pyridin-4-yl)urea]
29 | ≤ 10000 | > 10000 | O=C(Nc1ccc2nc(-c3ccccc3)c(-c3ccccc3)cc2c1)NC1(CO)CCCC1 [Example 143, 1-(2,3-diphenylquinolin-6-yl)-3-(1-(hydroxymethyl)cyclopentyl) urea]
30 | < 100 | ≤ 1000 | Cn1cc(NC(=O)Nc2ccc3nc(-c4ccccc4)c(-c4ccccc4)cc3c2)cn1 [Example 144, 1-(2,3-diphenylquinolin-6-yl)-3-(1-methyl-1H-pyrazol-4-yl)urea]
31 | ≤ 1000 | ≤ 1000 | CCC(O)CNC(=O)Nc1cnc2nc(-c3ccccc3)c(-c3ccccc3)cc2c1 (centres unmarked) [Example 145, 1-(6,7-Diphenyl-1,8-naphthyridin-3-yl)-3-(2-hydroxybutyl)urea]
